Measurements: patent US20130157953A1, “TREATMENT OF CARDIAC CONDITIONS” (Zealand Pharma A/S, priority 2010, published 2013)
Numbered stars: 1 amine (or outer) side, 2 acyl side, 3 side chain; on linkers, the order of the positions; unused ones are H or OH. Bridge positions count the residues as written; N and C are the ends. Square brackets hold non-standard residues; d marks the D form. Side chains are listed from the residue outwards. Peptide text beside a SMILES is read from it. * marks the point of attachment. γGlu = O=C(O)[C@H](CCC(=O)[*:2])N[*:1]; Palmitoyl = CCCCCCCCCCCCCCCC(=O)*; Aib = CC(C)(N)C(=O)O

Columns and labels:
[1] = molecular target: T1, human glucagon receptor (Homo sapiens, UniProt P47871); experiment: cAMP formation in HEK293 cells expressing the human glucagon receptor; assay type: cell-based; settings: 15 min at 37° C., read-out: EC50 (nM) GuR
T1 construct: expressed in transfected cells; host or cells: HEK293
Source text: (§1) Similarly, activation of the GLP-1 receptor by a GLP-1 agonist will stimulate cellular cAMP formation. Thus, production of cAMP in suitable cells expressing one of these two receptors can be used to monitor the relevant receptor activity.
(§2) The skilled person will be aware of suitable assay formats, and examples are provided below. […] (Where sequences of precursor proteins are referred to, it should of course be understood that assays may make use of the mature protein, lacking the signal sequence).
(§3) On the day of analysis, growth medium was removed and the cells washed once with 200 μl Tyrode buffer. Cells were incubated in […] containing increasing concentrations of test peptides, 100 μM IBMX, and 6 mM glucose for 15 min at 37° C. The reaction was stopped by addition of 25 μl 0.5 M HCl and incubated on ice for 60 min. The cAMP content was estimated using the FlashPlate® cAMP kit from Perkin-Elmer. EC50 values were estimated by computer aided curve fitting.

[2] = molecular target: T2, human GLP-1R (Homo sapiens, UniProt P43220); experiment: cAMP formation in HEK293 cells expressing human GLP-1R; assay type: cell-based; settings: 15 min at 37° C.
T2 construct: expressed in transfected cells; host or cells: HEK293
Source text: as §1, §2, §3

T2 sequence (P43220 24-463): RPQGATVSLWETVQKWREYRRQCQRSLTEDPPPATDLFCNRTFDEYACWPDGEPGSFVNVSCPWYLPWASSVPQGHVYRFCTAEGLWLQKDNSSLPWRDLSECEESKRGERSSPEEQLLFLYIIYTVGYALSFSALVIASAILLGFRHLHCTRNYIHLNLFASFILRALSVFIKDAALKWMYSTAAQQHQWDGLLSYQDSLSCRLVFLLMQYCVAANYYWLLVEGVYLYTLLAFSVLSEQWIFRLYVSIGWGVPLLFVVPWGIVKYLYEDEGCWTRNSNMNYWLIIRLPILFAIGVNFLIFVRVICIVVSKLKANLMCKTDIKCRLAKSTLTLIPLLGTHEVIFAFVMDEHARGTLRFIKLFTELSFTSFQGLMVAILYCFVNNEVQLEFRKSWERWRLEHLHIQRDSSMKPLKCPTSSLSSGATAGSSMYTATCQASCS
T1 sequence (P47871 26-477): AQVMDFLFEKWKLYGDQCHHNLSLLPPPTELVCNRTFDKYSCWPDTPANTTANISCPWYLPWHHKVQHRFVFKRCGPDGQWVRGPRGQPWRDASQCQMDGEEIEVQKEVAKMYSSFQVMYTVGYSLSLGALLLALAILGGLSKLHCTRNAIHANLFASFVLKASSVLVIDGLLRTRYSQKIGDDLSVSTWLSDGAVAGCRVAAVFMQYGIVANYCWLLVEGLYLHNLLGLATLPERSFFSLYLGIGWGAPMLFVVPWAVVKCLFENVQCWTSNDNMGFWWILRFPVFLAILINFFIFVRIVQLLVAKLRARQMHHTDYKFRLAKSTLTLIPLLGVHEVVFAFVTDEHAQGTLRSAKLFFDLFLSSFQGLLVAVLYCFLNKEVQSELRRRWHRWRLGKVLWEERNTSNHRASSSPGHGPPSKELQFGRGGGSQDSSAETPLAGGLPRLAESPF

Molecule	EC50 [1] [nM]	EC50 [2] [nM]
CCCCCCCCCCCCCCCC(=O)N[C@@H](CCC(=O)NCCCC[C@H](NC(=O)[C@H](CC(C)C)NC(=O)[C@H](CC(C)C)NC(=O)[C@H](Cc1c[nH]c2ccccc12)NC(=O)[C@H](CCC(=O)O)NC(=O)[C@@H](NC(=O)[C@H](Cc1ccccc1)NC(=O)[C@H](CC(=O)O)NC(=O)[C@H](Cc1c[nH]cn1)NC(=O)[C@H](C)NC(=O)[C@H](C)NC(=O)[C@H](CCCCN)NC(=O)[C@H](CO)NC(=O)[C@H](CC(=O)O)NC(=O)[C@H](CC(C)C)NC(=O)[C@H](Cc1ccc(O)cc1)NC(=O)[C@H](CCCCN)NC(=O)[C@H](CO)NC(=O)[C@H](Cc1ccc(O)cc1)NC(=O)[C@H](CC(=O)O)NC(=O)[C@H](CO)NC(=O)[C@@H](NC(=O)[C@H](Cc1ccccc1)NC(=O)[C@@H](NC(=O)CNC(=O)[C@H](CCC(N)=O)NC(=O)[C@H](CO)NC(=O)[C@@H](N)Cc1c[nH]cn1)[C@@H](C)O)[C@@H](C)O)C(C)C)C(=O)N[C@@H](C)C(N)=O)C(=O)O [Compound 205] (H-HSQGTFTSDYSKYLDSKAAHDFVEWLLK([γGlu-Palmitoyl])A-NH2)	0.1	0.09
CCCCCCCCCCCCCCCC(=O)N[C@@H](CCC(=O)NCCCC[C@H](NC(=O)[C@H](CO)NC(=O)[C@H](CC(=O)O)NC(=O)[C@H](CC(C)C)NC(=O)[C@H](Cc1ccc(O)cc1)NC(=O)[C@H](CCCCN)NC(=O)[C@H](CO)NC(=O)[C@H](Cc1ccc(O)cc1)NC(=O)[C@H](CC(=O)O)NC(=O)[C@H](CO)NC(=O)[C@@H](NC(=O)[C@H](Cc1ccccc1)NC(=O)[C@@H](NC(=O)CNC(=O)[C@H](CCC(N)=O)NC(=O)C(C)(C)NC(=O)[C@@H](N)Cc1c[nH]cn1)[C@@H](C)O)[C@@H](C)O)C(=O)N[C@@H](C)C(=O)N[C@@H](C)C(=O)N[C@@H](Cc1c[nH]cn1)C(=O)N[C@@H](CC(=O)O)C(=O)N[C@@H](Cc1ccccc1)C(=O)N[C@H](C(=O)N[C@@H](CCC(=O)O)C(=O)N[C@@H](Cc1c[nH]c2ccccc12)C(=O)N[C@@H](CC(C)C)C(=O)N[C@@H](CC(C)C)C(=O)N[C@@H](CO)C(=O)N[C@@H](C)C(N)=O)C(C)C)C(=O)O [Compound 208]	0.16	0.11
CC(C)C[C@H](NC(=O)[C@H](Cc1ccc(O)cc1)NC(=O)[C@H](CCCCN)NC(=O)[C@H](CO)NC(=O)[C@H](Cc1ccc(O)cc1)NC(=O)[C@H](CC(=O)O)NC(=O)[C@H](CO)NC(=O)[C@@H](NC(=O)[C@H](Cc1ccccc1)NC(=O)[C@@H](NC(=O)CNC(=O)[C@H](CCC(N)=O)NC(=O)[C@H](CO)NC(=O)[C@@H](N)Cc1c[nH]cn1)[C@@H](C)O)[C@@H](C)O)C(=O)N[C@@H](CC(=O)O)C(=O)N[C@@H](CO)C(=O)N[C@@H](CCCNC(=N)N)C(=O)N[C@@H](CCCNC(=N)N)C(=O)N[C@@H](C)C(=O)N[C@@H](CCC(N)=O)C(=O)N[C@@H](CC(=O)O)C(=O)N[C@@H](Cc1ccccc1)C(=O)N[C@H](C(=O)N[C@@H](Cc1c[nH]c2ccccc12)C(=O)N[C@@H](CC(C)C)C(=O)N[C@@H](CCC(=O)O)C(=O)N[C@@H](CO)C(=O)N[C@@H](C)C(N)=O)C(C)C [Compound 248]	0.1	0.5
CC(C)C[C@H](NC(=O)[C@H](Cc1ccc(O)cc1)NC(=O)[C@H](CCCCN)NC(=O)[C@H](CO)NC(=O)[C@H](Cc1ccc(O)cc1)NC(=O)[C@H](CC(=O)O)NC(=O)[C@H](CO)NC(=O)[C@@H](NC(=O)[C@H](Cc1ccccc1)NC(=O)[C@@H](NC(=O)CNC(=O)[C@H](CCC(N)=O)NC(=O)[C@H](CO)NC(=O)[C@@H](N)Cc1c[nH]cn1)[C@@H](C)O)[C@@H](C)O)C(=O)N[C@@H](CC(=O)O)C(=O)N[C@@H](CO)C(=O)N[C@@H](CCCNC(=N)N)C(=O)N[C@@H](CCCNC(=N)N)C(=O)N[C@@H](C)C(=O)N[C@@H](CCC(N)=O)C(=O)N[C@@H](CC(=O)O)C(=O)N[C@@H](Cc1ccccc1)C(=O)N[C@H](C(=O)N[C@@H](Cc1c[nH]c2ccccc12)C(=O)N[C@@H](CC(C)C)C(=O)N[C@@H](CCCCN)C(=O)N[C@@H](CO)C(=O)N[C@@H](C)C(N)=O)C(C)C [Compound 249]	0.1	0.1
CC(C)C[C@H](NC(=O)[C@H](Cc1ccc(O)cc1)NC(=O)[C@H](CCCCN)NC(=O)[C@H](CO)NC(=O)[C@H](Cc1ccc(O)cc1)NC(=O)[C@H](CC(=O)O)NC(=O)[C@H](CO)NC(=O)[C@@H](NC(=O)[C@H](Cc1ccccc1)NC(=O)[C@@H](NC(=O)CNC(=O)[C@H](CCC(N)=O)NC(=O)[C@H](CO)NC(=O)[C@@H](N)Cc1c[nH]cn1)[C@@H](C)O)[C@@H](C)O)C(=O)N[C@@H](CC(=O)O)C(=O)N[C@@H](CO)C(=O)N[C@@H](CCCNC(=N)N)C(=O)N[C@@H](CCCNC(=N)N)C(=O)N[C@@H](C)C(=O)N[C@@H](CCC(N)=O)C(=O)N[C@@H](CC(=O)O)C(=O)N[C@@H](Cc1ccccc1)C(=O)N[C@H](C(=O)N[C@@H](Cc1c[nH]c2ccccc12)C(=O)N[C@@H](CC(C)C)C(=O)N[C@@H](CCCCN)C(=O)N[C@@H](CCCNC(=N)N)C(=O)N[C@@H](C)C(N)=O)C(C)C [Compound 250]	0.1	0.3
CC(C)C[C@H](NC(=O)[C@H](Cc1ccc(O)cc1)NC(=O)[C@H](CCCCN)NC(=O)[C@H](CO)NC(=O)[C@H](Cc1ccc(O)cc1)NC(=O)[C@H](CC(=O)O)NC(=O)[C@H](CO)NC(=O)[C@@H](NC(=O)[C@H](Cc1ccccc1)NC(=O)[C@@H](NC(=O)CNC(=O)[C@H](CCC(N)=O)NC(=O)[C@H](CO)NC(=O)[C@@H](N)Cc1c[nH]cn1)[C@@H](C)O)[C@@H](C)O)C(=O)N[C@@H](CC(=O)O)C(=O)N[C@@H](CO)C(=O)N[C@@H](CCCNC(=N)N)C(=O)N[C@@H](CCCNC(=N)N)C(=O)N[C@@H](C)C(=O)N[C@@H](CCC(N)=O)C(=O)N[C@@H](CC(=O)O)C(=O)N[C@@H](Cc1ccccc1)C(=O)N[C@H](C(=O)N[C@@H](Cc1c[nH]c2ccccc12)C(=O)N[C@@H](CC(C)C)C(=O)N[C@@H](CCC(=O)O)C(=O)N[C@@H](CCCNC(=N)N)C(=O)N[C@@H](C)C(N)=O)C(C)C [Compound 251]	0.1	0.2
CC(C)C[C@@H]1NC(=O)[C@H](CC(C)C)NC(=O)[C@H](Cc2c[nH]c3ccccc23)NC(=O)[C@@H](NC(=O)[C@@H](NC(=O)[C@H](Cc2ccccc2)NC(=O)[C@H](CC(=O)O)NC(=O)[C@H](Cc2c[nH]cn2)NC(=O)[C@H](C)NC(=O)[C@H](C)NC(=O)[C@H](CCCCN)NC(=O)[C@H](CO)NC(=O)[C@H](CC(=O)O)NC(=O)[C@H](CC(C)C)NC(=O)[C@H](Cc2ccc(O)cc2)NC(=O)[C@H](CCCCN)NC(=O)[C@H](CO)NC(=O)[C@H](Cc2ccc(O)cc2)NC(=O)[C@H](CC(=O)O)NC(=O)[C@H](CO)NC(=O)[C@@H](NC(=O)[C@H](Cc2ccccc2)NC(=O)[C@@H](NC(=O)CNC(=O)[C@H](CCC(N)=O)NC(=O)[C@H](CO)NC(=O)[C@@H](N)Cc2c[nH]cn2)[C@@H](C)O)[C@@H](C)O)C(C)C)CCC(=O)NCCCC[C@@H](C(=O)N[C@@H](C)C(N)=O)NC1=O [Compound 261] (H-HSQGTFTSDYSKYLDSKAAHDFVEWLLKA-NH2; lactam 24-28)	0.07	0.03
H-HSQGTFTSDYSKYLDSKAAQDFVWLMNT-NH2 [Compound 260]	0.07	–

Molecules with a lower EC50 [1], results first:

EC50 [1] [nM]	EC50 [2] [nM]	Molecule
0.06	0.08	CC(C)C[C@H](NC(=O)[C@H](CC(C)C)NC(=O)[C@H](Cc1c[nH]c2ccccc12)NC(=O)[C@H](CCC(=O)O)NC(=O)[C@@H](NC(=O)[C@H](Cc1ccccc1)NC(=O)[C@H](CC(=O)O)NC(=O)[C@H](Cc1c[nH]cn1)NC(=O)[C@H](C)NC(=O)[C@H](C)NC(=O)[C@H](CCCCN)NC(=O)[C@H](CO)NC(=O)[C@H](CC(=O)O)NC(=O)[C@H](CC(C)C)NC(=O)[C@H](Cc1ccc(O)cc1)NC(=O)[C@H](CCCCN)NC(=O)[C@H](CO)NC(=O)[C@H](Cc1ccc(O)cc1)NC(=O)[C@H](CC(=O)O)NC(=O)[C@H](CO)NC(=O)[C@@H](NC(=O)[C@H](Cc1ccccc1)NC(=O)[C@@H](NC(=O)CNC(=O)[C@H](CCC(N)=O)NC(=O)C(C)(C)NC(=O)[C@@H](N)Cc1c[nH]cn1)[C@@H](C)O)[C@@H](C)O)C(C)C)C(=O)N[C@@H](CCCNC(=N)N)C(=O)N[C@@H](C)C(N)=O [Compound 45] (H-H[Aib]QGTFTSDYSKYLDSKAAHDFVEWLLRA-NH2)
0.04	0.1	CCCCCCCCCCCCCCCC(=O)N[C@@H](CCC(=O)NCCCC[C@H](NC(=O)[C@H](C)NC(=O)[C@H](C)NC(=O)[C@H](CCCCN)NC(=O)[C@H](CO)NC(=O)[C@H](CC(=O)O)NC(=O)[C@H](CC(C)C)NC(=O)[C@H](Cc1ccc(O)cc1)NC(=O)[C@H](CCCCN)NC(=O)[C@H](CO)NC(=O)[C@H](Cc1ccc(O)cc1)NC(=O)[C@H](CC(=O)O)NC(=O)[C@H](CO)NC(=O)[C@@H](NC(=O)[C@H](Cc1ccccc1)NC(=O)[C@@H](NC(=O)CNC(=O)[C@H](CCC(N)=O)NC(=O)[C@H](CO)NC(=O)[C@@H](N)Cc1c[nH]cn1)[C@@H](C)O)[C@@H](C)O)C(=O)N[C@@H](CC(=O)O)C(=O)N[C@@H](Cc1ccccc1)C(=O)N[C@H](C(=O)N[C@@H](CCC(=O)O)C(=O)N[C@@H](Cc1c[nH]c2ccccc12)C(=O)N[C@@H](CC(C)C)C(=O)N[C@@H](CC(C)C)C(=O)N[C@@H](CCCNC(=N)N)C(=O)N[C@@H](C)C(N)=O)C(C)C)C(=O)O [Compound 204] (H-HSQGTFTSDYSKYLDSKAAK([γGlu-Palmitoyl])DFVEWLLRA-NH2)
0.06	–	H-HSQGTFTSDYSKYLDSKAAHDFVEWLLRA-NH2 [Compound 48]
0.06	–	H-HSQGTFTSDYSRYLDERRAQDFVWLMNT-NH2 [Compound 258]
